Patent US20230089867A1, “CYCLIC PENTAMER COMPOUNDS AS PROPROTEIN CONVERTASE SUBTILISIN/KEXIN TYPE 9 (PCSK9) INHIBITORS FOR THE TREATMENT OF METABOLIC DISORDER” (Novartis AG, priority 2018, published 2023)

Molecular target: human PCSK9 (Homo sapiens, UniProt Q8NBP7)
Experiment: PCSK9 ligand binding TR-FRET assay (interference with binding of human PCSK9 to human LDLR)
Conditions: for Max % inhibition: PCSK9 FRET assay, efficacy (Amax), 100% = 1 uM unlabeled human PCSK9, 0% = DMSO; for IC50: TR-FRET, human PCSK9 Alexa Fluor 647 / human LDLR extracellular domain-Europium Kryptate, read-out: PCSK9 FRET Assay IC50
Summary of the method: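 Threefold compound dilutions were pre-incubated 30 min with PCSK9, after which 4 nM Europium Kryptate-tagged human LDLR ectodomain was added for a further 2 h.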

Sequence of human PCSK9 (Q8NBP7 153-692): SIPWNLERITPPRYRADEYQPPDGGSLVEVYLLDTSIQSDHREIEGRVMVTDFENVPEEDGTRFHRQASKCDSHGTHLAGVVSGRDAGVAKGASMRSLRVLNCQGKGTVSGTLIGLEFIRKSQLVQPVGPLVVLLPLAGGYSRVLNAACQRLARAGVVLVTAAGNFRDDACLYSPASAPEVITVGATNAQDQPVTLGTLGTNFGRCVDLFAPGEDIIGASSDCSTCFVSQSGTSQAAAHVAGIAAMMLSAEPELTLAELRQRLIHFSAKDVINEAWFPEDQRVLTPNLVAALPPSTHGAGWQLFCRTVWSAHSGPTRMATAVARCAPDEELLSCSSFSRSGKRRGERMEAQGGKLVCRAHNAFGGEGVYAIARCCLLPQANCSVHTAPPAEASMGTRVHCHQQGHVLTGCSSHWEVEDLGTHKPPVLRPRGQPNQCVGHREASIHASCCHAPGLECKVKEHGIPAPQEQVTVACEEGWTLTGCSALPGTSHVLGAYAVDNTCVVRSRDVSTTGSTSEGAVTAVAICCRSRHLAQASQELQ
Sequence of human PCSK9 (Q8NBP7 31-152 partner limits assumed): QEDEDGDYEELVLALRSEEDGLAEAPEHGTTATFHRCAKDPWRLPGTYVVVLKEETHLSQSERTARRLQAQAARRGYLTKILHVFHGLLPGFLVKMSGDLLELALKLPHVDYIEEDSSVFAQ

Structure (SMILES) | Max % inhibition | IC50
COC[C@@H]1NC(=O)[C@H](C)N(Cc2ccc(Cl)cc2Oc2ccc(-c3cnc(CN4CCOCC4)n3C)cc2)C(=O)C[C@@H](Cc2ccccc2)C(=O)N(C)[C@@H](C)CNC(=O)C[C@H](Cc2ccc(Cl)cc2)N(C)C1=O [Compound 205, (2S,5S,8S,13S,16R)-16-benzyl-1-(4-chloro-2-(4-(1-methyl-2-(morpholinomethyl)-1H-imidazol-5-yl)phenoxy)benzyl)-8-(4-chlorobenzyl)-5-(methoxymethyl)-2,7,13,14-tetramethyl-1,4,7,11,14-pentaazacyclooctadecane-3,6,10,15,18-pentaone] | 93.20% | 2 nM
COC[C@@H]1NC(=O)[C@H](C)N(Cc2ccc(Cl)cc2Oc2ccc(-c3nnc4n3CCN(C(=O)[C@H]3CCNC3)C4)cc2)C(=O)C[C@@H](Cc2ccccc2)C(=O)N(C)[C@@H](C)CNC(=O)C[C@H](Cc2ccc(Cl)cc2)N(C)C1=O [Compound 131, (2S,5S,8S,13S,16R)-16-benzyl-1-(4-chloro-2-(4-(7-((S)-pyrrolidine-3-carbonyl)-5,6,7,8-tetrahydro-[1,2,4]triazolo[4,3-a]pyrazin-3-yl)phenoxy)benzyl)-8-(4-chlorobenzyl)-5-(methoxymethyl)-2,7,13,14-tetramethyl-1,4,7,11,14-pentaazacyclooctadecane-3,6,10,15,18-pentaone] | 90.72% | 9.9 nM
COC[C@@H]1NC(=O)[C@H](C)N(Cc2ccc(Cl)cc2Oc2ccc(-c3cnc(CN(C)C)n3C)cc2)C(=O)C[C@@H](Cc2ccccc2C#N)C(=O)N(C)[C@@H](C)[C@H](C)NC(=O)C[C@H](Cc2ccc(Cl)cc2)N(C)C1=O [Compound 99, 2-(((2S,5S,8S,12S,13S,16R)-1-(4-chloro-2-(4-(2-((dimethylamino)methyl)-1-methyl-1H-imidazol-5-yl)phenoxy)benzyl)-8-(4-chlorobenzyl)-5-(methoxymethyl)-2,7,12,13,14-pentamethyl-3,6,10,15,18-pentaoxo-1,4,7,11,14-pentaazacyclooctadecan-16-yl)methyl)benzonitrile] | 104.20% | 1.6 nM
COC[C@@H]1NC(=O)[C@H](C)N(Cc2ccc(Cl)cc2Oc2ccc(-c3cnc(CN(C)C)n3C)cc2)C(=O)C[C@@H](C)C(=O)N(C)[C@@H](CC2CC2)CNC(=O)C[C@H](Cc2ccc(Cl)cc2)N(C)C1=O [Compound 5, (2S,5S,8S,13S,16R)-1-(4-chloro-2-(4-(2-((dimethylamino)methyl)-1-methyl-1H-imidazol-5-yl)phenoxy)benzyl)-8-(4-chlorobenzyl)-13-(cyclopropylmethyl)-5-(methoxymethyl)-2,7,14,16-tetramethyl-1,4,7,11,14-pentaazacyclooctadecane-3,6,10,15,18-pentaone] | 83.48% | 9.6 nM
COC[C@@H]1NC(=O)[C@H](C)N(Cc2c[nH]c(=O)cc2Oc2ccc(-c3cnc(CN(C)C)n3C)cc2)C(=O)C[C@@H](Cc2ccccc2)C(=O)N(C)[C@@H](C)CNC(=O)C[C@H](Cc2ccc(Cl)cc2)N(C)C1=O [Compound 168, (2S,5S,8S,13S,16R)-16-benzyl-8-(4-chlorobenzyl)-1-((4-(4-(2-((dimethylamino)methyl)-1-methyl-1H-imidazol-5-yl)phenoxy)-6-oxo-1,6-dihydropyridin-3-yl)methyl)-5-(methoxymethyl)-2,7,13,14-tetramethyl-1,4,7,11,14-pentaazacyclooctadecane-3,6,10,15,18-pentaone] | 85.66% | 67.7 nM
COC[C@@H]1NC(=O)[C@H](CCCNC(=O)OC(C)(C)C)N(Cc2ccc(Cl)cc2Oc2ccc(-c3cnc(CN(C)C)n3C)cc2)C(=O)C[C@@H](Cc2ccccc2)C(=O)N(C)[C@H]2CCCC[C@@H]2NC(=O)C[C@H](Cc2ccc(Cl)cc2)N(C)C1=O [Compound 182, tert-butyl (3-((4S,7S,10S,14R,16aS,20aS)-14-benzyl-11-(4-chloro-2-(4-(2-((dimethylamino)methyl)-1-methyl-1H-imidazol-5-yl)phenoxy)benzyl)-4-(4-chlorobenzyl)-7-(methoxymethyl)-5,16-dimethyl-2,6,9,12,15-pentaoxodocosahydrobenzo[l][1,4,7,11,14]pentaazacyclooctadecin-10-yl)propyl)carbamate] | 99.86% | 1.2 nM
COC[C@@H]1NC(=O)[C@H](C)N(Cc2ccc(Cl)cc2Oc2ccc(-c3cnc4n3CCN(C(=O)C3CCNC3)C4)cc2)C(=O)C[C@@H](Cc2ccccc2)C(=O)N(C)[C@@H](C)CNC(=O)C[C@H](Cc2ccc(Cl)cc2)N(C)C1=O.O=C(O)C(F)(F)F (stereo partly drawn) [Compound 124, (2S,5S,8S,13S,16R)-16-benzyl-1-(4-chloro-2-(4-(7-(pyrrolidine-3-carbonyl)-5,6,7,8-tetrahydroimidazo[1,2-a]pyrazin-3-yl)phenoxy)benzyl)-8-(4-chlorobenzyl)-5-(methoxymethyl)-2,7,13,14-tetramethyl-1,4,7,11,14-pentaazacyclooctadecane-3,6,10,15,18-pentaone trifluoroacetate] | 100.50% | 3.8 nM
Cc1c(CN2CCCC2)ncn1-c1ccc(Oc2cc(Cl)ccc2CN2C(=O)C[C@@H](Cc3ccccc3)C(=O)N(C)[C@H]3CCCC[C@@H]3NC(=O)C[C@H](Cc3ccc(Cl)cc3)N(C)C(=O)[C@H](CO)NC(=O)[C@@H]2C)cc1 [Compound 260, (4S,7S,10S,14R,16aS,20aS)-14-benzyl-11-(4-chloro-2-(4-(5-methyl-4-(pyrrolidin-1-ylmethyl)-1H-imidazol-1-yl)phenoxy)benzyl)-4-(4-chlorobenzyl)-7-(hydroxymethyl)-5,10,16-trimethylhexadecahydrobenzo[l][1,4,7,11,14]pentaazacyclooctadecine-2,6,9,12,15(3H)-pentaone] | 109.05% | 2.1 nM
CCC/C=C/c1ncc(-c2ccc(Oc3cc(Cl)ccc3CN3C(=O)C[C@@H](Cc4ccccc4)C(=O)N(C)[C@@H](C)CNC(=O)C[C@H](Cc4ccc(Cl)cc4)N(C)C(=O)[C@H](COC)NC(=O)[C@@H]3C)cc2)n1C [Compound 81, (2S,5S,8S,13S,16R)-16-benzyl-1-(4-chloro-2-(4-(1-methyl-2-((E)-pent-1-en-1-yl)-1H-imidazol-5-yl)phenoxy)benzyl)-8-(4-chlorobenzyl)-5-(methoxymethyl)-2,7,13,14-tetramethyl-1,4,7,11,14-pentaazacyclooctadecane-3,6,10,15,18-pentaone] | 87.86% | 34.5 nM
CCc1ccc(CN2C(=O)C[C@@H](Cc3ccccc3)C(=O)N(C)[C@H]3CCCC[C@@H]3NC(=O)C[C@H](Cc3ccc(Cl)cc3)N(C)C(=O)[C@H](COC)NC(=O)[C@@H]2C)c(Oc2ccc(-c3cnc([C@@H](C)N(C)C)n3C)cc2)c1 [Compound 85, (4S,7S,10S,14R,16aS,20aS)-14-benzyl-4-(4-chlorobenzyl)-11-(2-(4-(2-((R)-1-(dimethylamino)ethyl)-1-methyl-1H-imidazol-5-yl)phenoxy)-4-ethylbenzyl)-7-(methoxymethyl)-5,10,16-trimethylhexadecahydrobenzo[l][1,4,7,11,14]pentaazacyclooctadecine-2,6,9,12,15(3H)-pentaone] | 114.68% | 0.9 nM
C[C@H]1CNC(=O)C[C@H](Cc2ccc(Cl)cc2)N(C)C(=O)[C@H](COC(F)F)NC(=O)[C@H](C)N(Cc2ccc(Cl)cc2Oc2ccc(-c3cnc(CN(C)C)n3C)cc2)C(=O)C[C@@H](Cc2ccccc2)C(=O)N1C [Compound 170, (2S,5S,8S,13S,16R)-16-benzyl-1-(4-chloro-2-(4-(2-((dimethylamino)methyl)-1-methyl-1H-imidazol-5-yl)phenoxy)benzyl)-8-(4-chlorobenzyl)-5-((difluoromethoxy)methyl)-2,7,13,14-tetramethyl-1,4,7,11,14-pentaazacyclooctadecane-3,6,10,15,18-pentaone] | 102.49% | 1.3 nM
COC[C@@H]1NC(=O)[C@H](CCCCN(C)C)N(Cc2ccc(Cl)cc2Oc2ccc(-c3cnc(CN(C)C)n3C)cc2)C(=O)C[C@@H](Cc2ccccc2)C(=O)N(C)[C@@H](C)CNC(=O)C[C@H](Cc2ccc(Cl)cc2)N(C)C1=O [Compound 225, (2S,5S,8S,13S,16R)-16-benzyl-1-(4-chloro-2-(4-(2-((dimethylamino)methyl)-1-methyl-1H-imidazol-5-yl)phenoxy)benzyl)-8-(4-chlorobenzyl)-2-(4-(dimethylamino)butyl)-5-(methoxymethyl)-7,13,14-trimethyl-1,4,7,11,14-pentaazacyclooctadecane-3,6,10,15,18-pentaone] | 98.86% | 8 nM
COC[C@@H]1NC(=O)[C@H](CCCN2CC(F)(F)C(F)(F)C2)N(Cc2ccc(Cl)cc2Oc2ccc(-c3cnc(CN(C)C)n3C)cc2)C(=O)C[C@@H](Cc2ccccc2)C(=O)N(C)[C@H]2CCCC[C@@H]2NC(=O)C[C@H](Cc2ccc(Cl)cc2)N(C)C1=O [Compound 254, (4S,7S,10S,14R,16aS,20aS)-14-benzyl-11-(4-chloro-2-(4-(2-((dimethylamino)methyl)-1-methyl-1H-imidazol-5-yl)phenoxy)benzyl)-4-(4-chlorobenzyl)-7-(methoxy-methyl)-5,16-dimethyl-10-(3-(3,3,4,4-tetrafluoropyrrolidin-1-yl)propyl)hexadecahydro-benzo[l][1,4,7,11,14]pentaazacyclooctadecine-2,6,9,12,15(3H)-pentaone] | 102.70% | 3 nM
COC[C@@H]1NC(=O)[C@H](C)N(Cc2ccc(Cl)cc2Oc2ccc(-c3cnc(CN4CCCC4)n3C)cc2)C(=O)C[C@@H](Cc2cccc(F)c2)C(=O)N(C)[C@@H](C)CNC(=O)C[C@H](Cc2ccc(Cl)cc2)N(C)C1=O [Compound 155, (2S,5S,8S,13S,16R)-1-(4-chloro-2-(4-(1-methyl-2-(pyrrolidin-1-ylmethyl)-1H-imidazol-5-yl)phenoxy)benzyl)-8-(4-chlorobenzyl)-16-(3-fluorobenzyl)-5-(methoxymethyl)-2,7,13,14-tetramethyl-1,4,7,11,14-pentaazacyclooctadecane-3,6,10,15,18-pentaone] | 98.43% | 0.8 nM
